The values below come from patent US10660877B2 (BRISTOL-MYERS SQUIBB COMPANY, priority 2016, dated 2020).

Like-named read-outs stand apart in the source and are kept apart here.

Experiment [1] concerns the target human TLR7 (Homo sapiens (Human), UniProt Q9NYK1). Put plainly: TLR7 inhibition reporter assay (HEK-Blue cells, SEAP reporter, gardiquimod stimulation). The experiment is classed as cell-based. Conditions: HEK-Blue cells overexpressing human TLR7, gardiquimod 7.5 μM. Background: In a reporter assay the amount or activity of a reporter protein is the signal.
In experiment [2] the target is human TLR8 (Homo sapiens (Human), UniProt Q9NR97). Put plainly: TLR8 inhibition reporter assay (HEK-Blue cells, SEAP reporter, R848 stimulation).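 Further: compounds tested from 0.05 nM to 50 µM, 22 h at 37 °C, SEAP measured with HEK-Blue Detection, inhibition relative to agonist plus DMSO versus a known inhibitor.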
For experiment [3], the target named is human TLR9 (Homo sapiens (Human), UniProt Q9NR96). Put plainly: TLR9 inhibition reporter assay (HEK-Blue cells, SEAP reporter, ODN2006 stimulation).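 Further: compounds tested over 0.05 nM to 50 µM, 22 h incubation, inhibition taken as SEAP signal drop from agonist plus DMSO wells toward a known inhibitor control.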
[4] abbreviates: read-out: TLR8 IC50, HEK-Blue cells overexpressing human TLR8, R848 15.9 μM.
Where [5] appears, read: read-out: TLR9 IC50, HEK-Blue cells overexpressing human TLR9, ODN2006 5 nM.
Setting [6] is: TLR8 IC50, HEK-Blue cells overexpressing human TLR8, R848 15.9 μM.
Setting [7] is: TLR9 IC50, HEK-Blue cells overexpressing human TLR9, ODN2006 5 nM.

As a reminder, the IC50 is the concentration needed to halve the response being measured.

Chain of human TLR9 (Q9NR96 26-1032): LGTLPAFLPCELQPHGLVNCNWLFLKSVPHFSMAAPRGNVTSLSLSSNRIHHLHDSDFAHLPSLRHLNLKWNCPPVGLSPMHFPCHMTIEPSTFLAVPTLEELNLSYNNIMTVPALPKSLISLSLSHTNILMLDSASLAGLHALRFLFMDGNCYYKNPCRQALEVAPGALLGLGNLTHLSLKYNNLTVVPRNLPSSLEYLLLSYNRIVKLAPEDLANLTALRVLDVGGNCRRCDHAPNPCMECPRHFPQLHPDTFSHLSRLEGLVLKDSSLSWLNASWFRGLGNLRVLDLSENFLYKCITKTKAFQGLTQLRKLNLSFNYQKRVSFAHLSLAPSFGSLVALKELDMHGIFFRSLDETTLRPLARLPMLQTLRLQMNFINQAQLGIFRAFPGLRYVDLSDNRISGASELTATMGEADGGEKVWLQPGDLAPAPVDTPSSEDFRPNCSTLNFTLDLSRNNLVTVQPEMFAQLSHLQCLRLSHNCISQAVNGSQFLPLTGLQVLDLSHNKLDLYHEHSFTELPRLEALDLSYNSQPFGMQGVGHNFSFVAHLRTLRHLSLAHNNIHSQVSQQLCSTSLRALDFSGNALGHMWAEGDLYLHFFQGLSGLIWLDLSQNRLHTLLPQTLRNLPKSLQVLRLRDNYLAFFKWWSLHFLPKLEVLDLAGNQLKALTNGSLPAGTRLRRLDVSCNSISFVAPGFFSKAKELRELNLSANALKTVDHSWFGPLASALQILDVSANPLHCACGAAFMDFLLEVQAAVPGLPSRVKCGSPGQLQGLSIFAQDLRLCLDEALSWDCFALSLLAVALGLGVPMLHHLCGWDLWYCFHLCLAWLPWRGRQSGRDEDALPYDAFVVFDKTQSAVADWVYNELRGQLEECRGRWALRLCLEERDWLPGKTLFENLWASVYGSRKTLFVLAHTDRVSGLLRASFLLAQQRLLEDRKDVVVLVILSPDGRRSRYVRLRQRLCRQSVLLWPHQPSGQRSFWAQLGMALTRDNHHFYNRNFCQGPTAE
Chain of human TLR8 (Q9NR97 27-1041): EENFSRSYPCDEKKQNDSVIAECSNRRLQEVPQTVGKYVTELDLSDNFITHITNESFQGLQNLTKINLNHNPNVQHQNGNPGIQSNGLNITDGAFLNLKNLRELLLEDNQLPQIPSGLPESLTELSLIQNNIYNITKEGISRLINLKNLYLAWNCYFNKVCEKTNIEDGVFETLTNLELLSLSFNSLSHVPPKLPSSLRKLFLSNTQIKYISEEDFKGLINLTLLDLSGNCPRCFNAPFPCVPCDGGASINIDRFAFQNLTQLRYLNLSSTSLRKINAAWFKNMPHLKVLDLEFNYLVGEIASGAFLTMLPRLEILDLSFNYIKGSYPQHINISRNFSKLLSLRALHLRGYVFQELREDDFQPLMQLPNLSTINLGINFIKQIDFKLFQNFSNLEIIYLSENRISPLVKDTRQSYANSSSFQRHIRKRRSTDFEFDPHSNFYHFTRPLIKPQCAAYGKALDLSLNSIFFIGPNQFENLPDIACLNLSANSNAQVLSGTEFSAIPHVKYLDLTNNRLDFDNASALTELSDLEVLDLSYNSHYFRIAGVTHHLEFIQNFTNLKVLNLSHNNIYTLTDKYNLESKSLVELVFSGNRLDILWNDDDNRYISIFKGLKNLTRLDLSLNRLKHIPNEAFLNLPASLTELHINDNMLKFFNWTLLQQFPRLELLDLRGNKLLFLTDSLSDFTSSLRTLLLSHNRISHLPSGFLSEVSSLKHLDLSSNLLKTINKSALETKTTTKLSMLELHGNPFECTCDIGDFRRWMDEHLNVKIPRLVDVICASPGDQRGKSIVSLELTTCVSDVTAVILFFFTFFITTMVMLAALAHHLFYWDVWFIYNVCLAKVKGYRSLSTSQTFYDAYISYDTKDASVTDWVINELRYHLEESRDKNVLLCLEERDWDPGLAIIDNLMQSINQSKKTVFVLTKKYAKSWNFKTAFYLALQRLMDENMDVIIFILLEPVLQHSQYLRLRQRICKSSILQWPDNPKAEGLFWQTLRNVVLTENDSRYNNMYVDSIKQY
Chain of human TLR7 (Q9NYK1 27-1049): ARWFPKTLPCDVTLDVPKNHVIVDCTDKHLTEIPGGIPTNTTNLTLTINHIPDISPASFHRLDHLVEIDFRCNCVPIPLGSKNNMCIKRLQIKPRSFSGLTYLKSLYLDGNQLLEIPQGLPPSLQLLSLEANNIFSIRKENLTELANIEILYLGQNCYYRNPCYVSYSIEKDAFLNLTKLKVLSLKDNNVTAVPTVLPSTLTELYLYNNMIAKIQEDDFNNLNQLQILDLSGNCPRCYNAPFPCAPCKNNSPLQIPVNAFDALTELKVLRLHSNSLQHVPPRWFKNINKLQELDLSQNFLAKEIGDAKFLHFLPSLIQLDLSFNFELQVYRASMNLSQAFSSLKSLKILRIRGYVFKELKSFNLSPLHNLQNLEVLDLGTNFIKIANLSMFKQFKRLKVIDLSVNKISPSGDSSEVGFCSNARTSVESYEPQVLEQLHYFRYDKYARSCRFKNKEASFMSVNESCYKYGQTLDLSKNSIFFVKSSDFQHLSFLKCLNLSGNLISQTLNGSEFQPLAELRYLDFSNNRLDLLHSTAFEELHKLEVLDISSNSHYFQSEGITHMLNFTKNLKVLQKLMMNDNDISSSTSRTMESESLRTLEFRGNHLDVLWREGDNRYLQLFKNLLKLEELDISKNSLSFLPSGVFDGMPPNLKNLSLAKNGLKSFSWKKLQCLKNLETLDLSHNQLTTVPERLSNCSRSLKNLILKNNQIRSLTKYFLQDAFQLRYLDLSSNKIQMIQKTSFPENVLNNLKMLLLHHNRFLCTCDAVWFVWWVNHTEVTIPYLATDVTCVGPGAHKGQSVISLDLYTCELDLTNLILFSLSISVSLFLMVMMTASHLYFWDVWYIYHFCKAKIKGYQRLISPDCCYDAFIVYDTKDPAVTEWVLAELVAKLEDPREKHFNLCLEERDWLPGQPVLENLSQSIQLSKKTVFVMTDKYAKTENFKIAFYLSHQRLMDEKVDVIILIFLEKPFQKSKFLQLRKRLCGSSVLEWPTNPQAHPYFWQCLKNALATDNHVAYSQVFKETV

`Cc1cc(-c2[nH]c3ccc(C4CCN(CC(=O)NC5(C)CCOCC5)CC4)cc3c2C(C)C)cc(C)n1` [Example 267, 2-(4-(2-(2,6-dimethylpyridin-4-yl)-3-isopropyl-1H-indol-5-yl)piperidin-1-yl)-N-(4-methyltetrahydro-2H-pyran-4-yl)acetamide]: the values for the half-inhibitory concentration (IC50) in experiment [1], in experiment [2] (setting [4]) and in experiment [3] (setting [5]) were 2.6 nM, 11.1 nM and 348 nM, respectively.

Turning to `Cc1cc(-c2[nH]c3ccc(C4CCN(CC(=O)NCC(C)(C)O)CC4)cc3c2C(C)C)cc(C)n1` [Example 268, 2-(4-(2-(2,6-dimethylpyridin-4-yl)-3-isopropyl-1H-indol-5-yl)piperidin-1-yl)-N-(2-hydroxy-2-methylpropyl)acetamide], the IC50 was 3 nM in experiment [1], 7.2 nM in experiment [2] (setting [4]) and 416 nM in experiment [3] (setting [5]).

In the case of `Cc1cc(-c2[nH]c3ccc(C4CCN(CC(=O)N5CCC(C)CC5)CC4)cc3c2C(C)C)cc(C)n1` [Example 269, 2-(4-(2-(2,6-dimethylpyridin-4-yl)-3-isopropyl-1H-indol-5-yl)piperidin-1-yl)-1-(4-methylpiperidin-1-yl)ethan-1-one], the IC50 in experiment [1] amounted to 3.7 nM; in experiment [2] (setting [4]), 19.8 nM; in experiment [3] (setting [5]), 227 nM.

As to `Cc1cc(-c2[nH]c3ccc(C4CCN(CC(=O)N5CCCCC5C)CC4)cc3c2C(C)C)cc(C)n1` (stereo not drawn) [Example 270, 2-(4-(2-(2,6-dimethylpyridin-4-yl)-3-isopropyl-1H-indol-5-yl)piperidin-1-yl)-1-(2-methylpiperidin-1-yl)ethan-1-one], the results for the IC50 in experiment [1], in experiment [2] (setting [4]) and in experiment [3] (setting [5]) were 6.4 nM, 15.5 nM and 192 nM, respectively.

Regarding `Cc1cc(-c2[nH]c3ccc(C4CCN(CC(=O)N5CCNC(=O)C5)CC4)cc3c2C(C)C)cc(C)n1` [Example 272, 4-(2-(4-(2-(2,6-dimethylpyridin-4-yl)-3-isopropyl-1H-indol-5-yl)piperidin-1-yl)acetyl)piperazin-2-one], the IC50 amounted to 1.2 nM in experiment [1], 3.1 nM in experiment [2] (setting [4]) and 46 nM in experiment [3] (setting [5]).

`Cc1cc(-c2[nH]c3ccc(C4CCN(CC(=O)N5CC[C@H](O)C5)CC4)cc3c2C(C)C)cc(C)n1` [Example 273, (S)-2-(4-(2-(2,6-dimethylpyridin-4-yl)-3-isopropyl-1H-indol-5-yl)piperidin-1-yl)-1-(3-hydroxypyrrolidin-1-yl)ethan-1-one]: the IC50 in experiment [1] was 1.5 nM; in experiment [2] (setting [6]) it was 5.4 nM; in experiment [3] (setting [7]), 66 nM.

Take `Cc1cc(-c2[nH]c3ccc(C4CCN(CC(=O)N5CCC[C@H]5CO)CC4)cc3c2C(C)C)cc(C)n1` [Example 274, (S)-2-(4-(2-(2,6-dimethylpyridin-4-yl)-3-isopropyl-1H-indol-5-yl)piperidin-1-yl)-1-(2-(hydroxymethyl)pyrrolidin-1-yl)ethan-1-one]: the half-maximal inhibitory concentration (IC50) in experiment [1] was 1.9 nM; in experiment [2] (setting [4]), 9.1 nM; in experiment [3] (setting [5]), 261 nM.

On to `Cc1cc(-c2[nH]c3ccc(C4CCN(CC(=O)N5CC[C@@H](O)C5)CC4)cc3c2C(C)C)cc(C)n1` [Example 275, (R)-2-(4-(2-(2,6-dimethylpyridin-4-yl)-3-isopropyl-1H-indol-5-yl)piperidin-1-yl)-1-(3-hydroxypyrrolidin-1-yl)ethan-1-one], for which the half-maximal inhibitory concentration (IC50) in experiment [1] was 1.6 nM; in experiment [2] (setting [6]) it was 6.8 nM; in experiment [3] (setting [7]) it was 67 nM.

For `Cc1cc(-c2[nH]c3ccc(C4CCN(CC(=O)N[C@H](CO)CC(C)C)CC4)cc3c2C(C)C)cc(C)n1` [Example 276, (S)-2-(4-(2-(2,6-dimethylpyridin-4-yl)-3-isopropyl-1H-indol-5-yl)piperidin-1-yl)-N-(1-hydroxy-4-methylpentan-2-yl)acetamide], the half-inhibitory concentration (IC50) in experiment [1] is 6.3 nM; in experiment [2] (setting [4]), 18.6 nM; in experiment [3] (setting [5]) it was 853 nM.

For `Cc1cc(-c2[nH]c3ccc(C4CCN(CC(=O)N5CCCC(O)C5)CC4)cc3c2C(C)C)cc(C)n1` (stereo not drawn) [Example 277, 2-(4-(2-(2,6-dimethylpyridin-4-yl)-3-isopropyl-1H-indol-5-yl)piperidin-1-yl)-1-(3-hydroxypiperidin-1-yl)ethan-1-one], the concentration for half-maximal inhibition (IC50) was 2 nM in experiment [1], 6.6 nM in experiment [2] (setting [4]) and 201 nM in experiment [3] (setting [5]).

For the compound `Cc1cc(-c2[nH]c3ccc(C4CCN(CC(=O)N(C)C5CCCCC5)CC4)cc3c2C(C)C)cc(C)n1` [Example 278, N-cyclohexyl-2-(4-(2-(2,6-dimethylpyridin-4-yl)-3-isopropyl-1H-indol-5-yl)piperidin-1-yl)-N-methylacetamide], the half-maximal inhibitory concentration (IC50) in experiment [1] is 6.1 nM; in experiment [2] (setting [4]), 28.5 nM; in experiment [3] (setting [5]) it was 288 nM.

Turning to `Cc1cc(-c2[nH]c3ccc(C4CCN(CC(=O)NC5CCCOC5)CC4)cc3c2C(C)C)cc(C)n1` (stereo not drawn) [Example 279, 2-(4-(2-(2,6-dimethylpyridin-4-yl)-3-isopropyl-1H-indol-5-yl)piperidin-1-yl)-N-(tetrahydro-2H-pyran-3-yl)acetamide], the values for the IC50 in experiment [1], in experiment [2] (setting [4]) and in experiment [3] (setting [5]) were 2.3 nM, 11 nM and 512 nM, respectively.

`Cc1cc(-c2[nH]c3ccc(C4CCN(CC(=O)NC5CCOCC5)CC4)cc3c2C(C)C)cc(C)n1` [Example 280, 2-(4-(2-(2,6-dimethylpyridin-4-yl)-3-isopropyl-1H-indol-5-yl)piperidin-1-yl)-N-(tetrahydro-2H-pyran-4-yl)acetamide]: the results for the IC50 in experiment [1], in experiment [2] (setting [4]) and in experiment [3] (setting [5]) were 3 nM, 6.1 nM and 350 nM, respectively.

With `Cc1cc(-c2[nH]c3ccc(C4CCN(CC(=O)N5CCS(=O)(=O)CC5)CC4)cc3c2C(C)C)cc(C)n1` [Example 281, 2-(4-(2-(2,6-dimethylpyridin-4-yl)-3-isopropyl-1H-indol-5-yl)piperidin-1-yl)-1-(1,1-dioxidothiomorpholino)ethan-1-one], the IC50 in experiment [1] turned out to be 1.2 nM; in experiment [2] (setting [4]), 2 nM; in experiment [3] (setting [5]), 129 nM.

As to `Cc1cc(-c2[nH]c3ccc(C4CCN(CC(=O)NC5CCOC5)CC4)cc3c2C(C)C)cc(C)n1` (stereo not drawn) [Example 282, 2-(4-(2-(2,6-dimethylpyridin-4-yl)-3-isopropyl-1H-indol-5-yl)piperidin-1-yl)-N-(tetrahydrofuran-3-yl)acetamide], the half-maximal inhibitory concentration (IC50) was 3.7 nM in experiment [1], 9 nM in experiment [2] (setting [4]) and 2700 nM in experiment [3] (setting [5]).

Turning to `Cc1cc(-c2[nH]c3ccc(C4CCN(CC(=O)N5CCC(F)CC5)CC4)cc3c2C(C)C)cc(C)n1` [Example 283, 2-(4-(2-(2,6-dimethylpyridin-4-yl)-3-isopropyl-1H-indol-5-yl)piperidin-1-yl)-1-(4-fluoropiperidin-1-yl)ethan-1-one], the half-maximal inhibitory concentration (IC50) was found to be 2.6 nM in experiment [1], 8.9 nM in experiment [2] (setting [4]) and 248 nM in experiment [3] (setting [5]).

As to `Cc1cc(-c2[nH]c3ccc(C4CCN(CC(=O)N5CCCC(F)(F)C5)CC4)cc3c2C(C)C)cc(C)n1` [Example 285, 1-(3,3-difluoropiperidin-1-yl)-2-(4-(2-(2,6-dimethylpyridin-4-yl)-3-isopropyl-1H-indol-5-yl)piperidin-1-yl)ethan-1-one], the values for the 50% inhibitory concentration (IC50) in experiment [1], in experiment [2] (setting [4]) and in experiment [3] (setting [5]) were 4 nM, 13.9 nM and 423 nM, respectively.

Turning to `Cc1cc(-c2[nH]c3ccc(C4CCN(CC(=O)N5CCC6(CC5)COC6)CC4)cc3c2C(C)C)cc(C)n1` [Example 286, 2-(4-(2-(2,6-dimethylpyridin-4-yl)-3-isopropyl-1H-indol-5-yl)piperidin-1-yl)-1-(2-oxa-7-azaspiro[3.5]nonan-7-yl)ethan-1-one], the results for the concentration for half-maximal inhibition (IC50) in experiment [1], in experiment [2] (setting [4]) and in experiment [3] (setting [5]) were 6.2 nM, 14 nM and 261 nM, respectively.
